Literature values, collected in US7309799B2 (Collegium Pharmaceutical, Inc., priority 2004, dated 2007).

Tests used:
[1] = tested on: SNL-induced hypersensitivity; settings: rats; for reversal of mechanical hypersensitivity: SNL
[2] = tested on: gastric mucosa; settings: preclinical studies
[3] = molecular target: reuptake of serotonin (Homo sapiens, UniProt P31645); settings: compared with noradrenaline reuptake
[4] = tested on: neurotransmitter receptor

Chain of reuptake of serotonin (P31645 whole entry): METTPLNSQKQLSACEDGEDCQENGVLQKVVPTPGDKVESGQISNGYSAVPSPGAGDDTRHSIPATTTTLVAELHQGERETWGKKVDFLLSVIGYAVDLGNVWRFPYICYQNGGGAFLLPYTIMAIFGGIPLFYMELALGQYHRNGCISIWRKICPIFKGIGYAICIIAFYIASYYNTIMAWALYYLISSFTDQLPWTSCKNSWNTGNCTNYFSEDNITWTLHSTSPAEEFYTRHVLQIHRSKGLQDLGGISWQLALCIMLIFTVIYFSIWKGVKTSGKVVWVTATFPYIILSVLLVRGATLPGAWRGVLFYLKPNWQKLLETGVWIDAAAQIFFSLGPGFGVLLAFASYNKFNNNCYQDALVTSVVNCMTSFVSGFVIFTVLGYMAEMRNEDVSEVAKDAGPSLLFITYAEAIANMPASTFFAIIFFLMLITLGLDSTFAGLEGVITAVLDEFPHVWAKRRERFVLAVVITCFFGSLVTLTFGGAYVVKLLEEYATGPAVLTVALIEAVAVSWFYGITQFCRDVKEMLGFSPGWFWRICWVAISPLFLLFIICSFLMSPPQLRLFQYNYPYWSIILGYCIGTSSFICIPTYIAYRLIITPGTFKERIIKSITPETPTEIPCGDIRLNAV

| Compound | reversal of SNL-induced thermal hypersensitivity [1] | reversal of mechanical hypersensitivity [1] | effect on gastric mucosa [2] | potency of inhibition of the reuptake of serotonin [3] | general and cardiovascular tolerability versus TCAs (database of over 3300 patients) | incidence of dysuria versus SSRIs (human, in vivo) | tolerability versus SSRIs (human, in vivo) | nausea and vomiting (dose-limiting gastrointestinal disturbances) (oral administration) | affinity for any neurotransmitter receptor studied [4] | effectiveness in reversing SNL induced thermal hypersensitivity compared with duloxetine [1] |
| --- | --- | --- | --- | --- | --- | --- | --- | --- | --- | --- |
| CNCC[C@H](Oc1cccc2ccccc12)c1cccs1 [duloxetine] | both reversed | Neither milnacipran nor duloxetine reversed |  |  |  |  |  |  |  |  |
| CCN(CC)C(=O)[C@@]1(c2ccccc2)C[C@H]1CN.Cl (racemic) [milnacipran, racemic cis-2-(aminomethyl)-N,N-diethyl-1-phenyl-cyclopropanecarboxamide] | both reversed | Neither milnacipran nor duloxetine reversed | direct irritant effect | essentially equal potency | superior to those of the tricyclic antidepressants (TCAs) | higher incidence of dysuria | comparable to that of the SSRIs | increasing frequency after doses of 100 mg or above | no detectable affinity | more effective |
